Legend:
[1] = Properties of respective derivatives (solubility); type: physicochemical
[2] = Acute oral toxicity in mice; settings: mouse, in vivo, mortality 7 days after administration
Method: 10 ddY Strain male mice weighing about 20 g were used in each group. Each compound of this invention was suspended in a 5% aqueous gum arabic solution and administered orally. The mortality rate (%) was determined from the number of dead animals 7 days after the administration, and the dosage corresponding to 50% mortality was calculated and expressed as LD50 (mg/kg).

[3] = system: Carrageenin-Induced Foot Edema; test: Inhibition for carrageenin-induced foot edema in rats; type: in vivo, Wister strain male rats; settings: Rattus norvegicus, po, 1 hour before carrageenin, paw volume 3 hours after, probit method, read-out: ED30 (dosage for 30% inhibition of edema)
Method: 10 Wister strain male rats weighing about 120 g were used in each group. Each compound of this invention was suspended in a 5% aqueous arabic gum solution and administered orally to the animals. One hour after the administration, 0.1 ml of a 1% solution of carrageenin in physiological saline as a phlogistic agent was subcutaneously injected into the right hind paw of the rats which had been shaven previously. The volume of the right hind paw was measured before the administration of the phlogistic agent and 3 hours after the administration. The intensity of edema expressed as percent increase in the foot volume was calculated from the […] (1) and the percent inhibition of edema was calculated from the equation (2). [formula]
The effective dosage of each compound for inhibiting edema was expressed as ED30 (mg/kg) by calculating the dosage for 30% inhibition from the percent inhibition of edema according to the probit method.

[4] = system: rats; test: Diuretic effect in rats; type: in vivo, Wister strain male rats; settings: Rattus norvegicus, po, 5 h, urine volume up to 5 hours, % of control
Method: Wister strain male rats weighing about 200 g were starved overnight and each compound of this invention suspended in 25 ml/kg of physiological saline were administered orally to the 5 animals in each group, and the diuretic effect up to 5 hours after the administration was measured. The diuretic effect is expressed as the average urine volume (%) of the treated group divided by that of the control group.

Row | Compound | Solubility in ethanol and dichloromethane [1] | Solubility in water and hexane [1] | LD50 at 168 h [2] [mg/kg] | ED30 [3] [mg/kg] | response vs control in vivo at 10 mg/kg ([4]; dosage 10 mg/kg) [%] | response vs control in vivo at 20 mg/kg ([4]; dosage 20 mg/kg) [%] | response vs control in vivo at 50 mg/kg ([4]; dosage 50 mg/kg) [%]
1 | CN(C)C(=O)N1CCC(=NO)c2cc(Cl)ccc21 [XXII, 6-Chloro-4-oximino-1-dimethylcarbamoyl-1,2,3,4-tetrahydroquinoline] | soluble | Sparingly soluble | > 5000 | 34 | 198 | 263 | 
2 | CN(C)C(=O)N1CCC(=NO)c2cc(Br)ccc21 [XXIII, 6-Bromo-4-oximino-1-dimethylcarbamoyl-1,2,3,4-tetrahydroquinoline] | soluble | Sparingly soluble | > 5000 | 51 |  |  | 200
